Measurements from patent US20250100973A1, “DIIMIDE DERIVATIVE, AND PREPARATION METHOD THEREFOR AND USE THEREOF” (XIANGBEI WELMAN PHARMACEUTICAL CO., LTD., priority 2022, published 2025).
Read-outs that look alike come from different tables or passages of the source.

What was measured:
[1] = tested on: HL-60 human leukemia cells; assay: In vitro antiproliferative activity (resazurin, 96 h); type: cell-based; conditions: read-out: IC50 grade of inhibitory effect on tumor cells, HL-60
Method: (§1) Objective: to test the antiproliferative activity of the compound in the present disclosure against a variety of tumor cells. […] Amonafide and lomustine were commercially available. Test cells: human colon cancer cells (HT-29, COLO 205), human lung cancer cells (NCI-H460, A549), and human leukemia cells (HL-60, U-937). Test methods: each tumor cell was processed separately. Cells were cultured in a culture medium at 37° C. for 24 h for later use. The cells in the exponential growth phase were harvested, treated with trypsin to prepare a cell suspension, the cell suspension was centrifuged, and then the cell pellet was resuspended in a small amount of fresh culture medium as a stock cell solution. A 96-well plate was taken, and blank control groups, cell control groups and compound treatment groups were set up. […] The remaining wells were filled with 200 μL of 10% PBS. The plate was placed in an incubator overnight. 100 μL of each test compound at different dilution concentrations was added into each well of the compound treatment groups, 10 and the dilution concentrations of the compound were as shown in Table 2. […] After adding the drug, the plate was placed in an incubator to be cultured for 96 hours, 22 μL of resazurin sodium solution (Alarm blue, SIGMA R7017) was added into each well, and the plate was returned to the incubator to be cultured for another 4 h. The plate was shaken for 10 s after being taken out. A fluorescence value of each well was tested at 530/590 nm. The above operations were repeated for three times. The IC50 value of each test compound was calculated with the Prism7 software. The IC50 was divided into different grades according to value, that is: […]

[2] = tested on: NCI-H460 human lung cancer cells; assay: as above; type: cell-based; conditions: read-out: IC50 grade of inhibitory effect on tumor cells, NCI-H460
Method: as §1

[3] = tested on: COLO 205 human colon cancer cells; assay: as above; type: cell-based; conditions: read-out: IC50 grade of inhibitory effect on tumor cells, COLO 205
Method: as §1

[4] = tested on: U-937 human leukemia cells; assay: as above; type: cell-based; conditions: read-out: IC50 grade of inhibitory effect on tumor cells, U-937
Method: as §1

[5] = tested on: HT-29 human colon cancer cells; assay: as above; type: cell-based; conditions: read-out: IC50 grade of inhibitory effect on tumor cells, HT-29
Method: as §1

[6] = tested on: A549 human lung cancer cells; assay: as above; type: cell-based; conditions: read-out: IC50 grade of inhibitory effect on tumor cells, A549
Method: as §1

[7] = tested on: COLO 205 transplanted tumor; assay: In vivo antitumor effect in COLO 205 transplanted tumor model; design: species or system BALB/c nude mice; conditions: nude mice, COLO 205 xenograft, intragastric 10 mg/kg once a day, 21 times, last day
Method: Objective: to further test the in vivo antitumor effects of compounds of the present disclosure
Test compounds: I-01, I-08.
Test animals: 5-week-old female BALB/c nude mice were fed normally for 7 days, and mice with good physical conditions were selected for experiments.
Tumor cells: human colon cancer cells COLO 205 were subjected to cell culture in a RPMI-1640 medium containing 10% fetal bovine serum. The passaging was carried out for 1-2 times a week, with a passaging ratio of 1:3 to 1:6.
Modeling and grouping: COLO 205 cells in a logarithmic growth phase were harvested and injected into the anterior right mammary fat pad of nude mice with an injection volume of 5×10^6 cells per animal to establish a COLO 205 transplanted tumor model. The animal status was observed regularly, tumor diameter was measured, and tumor volume was calculated. After the tumor volume reached approximately 150 mm^3, tumor-bearing mice in good health and with similar tumor volumes were selected and randomly divided into a solvent control group, an I-01 group, and an I-08 group.
Administration: each test compound was dissolved in solvent, and each animal group was treated with corresponding compounds or blank solvent, respectively. The administration method was intragastric administration, with a dosage of 10 mg/kg, once a day, and a total of 21 times.
Result: on the last day of the experiment, tumor diameter and tumor weight were measured, tumor growth inhibition rate (GI) and tumor weight inhibition rate (IR) were calculated.
Tumor growth inhibition rate=100%×[1−(Tvt−Tvini)÷(Cvt−Cvini)], where Tvt represents tumor volume of the treatment group at the end of the experiment, Tvini represents initial tumor volume of the treatment group, Cvt represents tumor volume of the solvent control group at the end of the experiment, and Cvini represents initial tumor volume of the solvent control group.
Tumor weight inhibition rate=100%×(Cw−Tw)÷Cw, where Cw represents tumor weight of the solvent control group at the end of the experiment, and Tw represents tumor weight of the treatment group at the end of the experiment.

[8] = Homo sapiens, HL-60, 96 h culture, resazurin fluorescence
[9] = Homo sapiens, NCI-H460, 96 h culture, resazurin fluorescence
[10] = Homo sapiens, COLO 205, 96 h culture, resazurin fluorescence
[11] = Homo sapiens, U-937, 96 h culture, resazurin fluorescence
[12] = Homo sapiens, HT-29, 96 h culture, resazurin fluorescence
[13] = Homo sapiens, A549, 96 h culture, resazurin fluorescence
[14] = HL-60, 96 h culture, resazurin fluorescence
[15] = NCI-H460, 96 h culture, resazurin fluorescence
[16] = COLO 205, 96 h culture, resazurin fluorescence
[17] = U-937, 96 h culture, resazurin fluorescence
[18] = HT-29, 96 h culture, resazurin fluorescence
[19] = A549, 96 h culture, resazurin fluorescence

| Structure (SMILES) | IC50 [1, 8] | IC50 [2, 9] | IC50 [3, 10] | IC50 [4, 11] | IC50 [5, 12] | IC50 [6, 13] | also measured |
| --- | --- | --- | --- | --- | --- | --- | --- |
| CC(C)(C)OC(=O)NCCCN1CCN(CCCN2C(=O)c3cccc4cc([N+](=O)[O-])cc(c34)C2=O)CC1 [Cob280] | 5 to 10 µM | 11 to 20 µM | 11 to 20 µM | 5 to 10 µM | 5 to 10 µM | 11 to 20 µM | – |
| CCN(CC)C(=O)N(C)CCNCN1C(=O)c2cccc3c(OC)ccc(c23)C1=O [Compound I-06] | 1 to 5 µM | 5 to 10 µM | 5 to 10 µM | 1 to 5 µM | 1 to 5 µM | 1 to 5 µM | – |
| O=NN(CCCl)C(=O)NC1CCCCC1 [Lomustine] | 21 to 50 µM | 51 to 100 µM | > 100 µM | 11 to 20 µM | 51 to 100 µM | > 100 µM | – |
| CN(CCNC(=O)N(CCCl)N=O)CCN1C(=O)c2cccc3cc([N+](=O)[O-])cc(c23)C1=O [Compound I-01] | – | – | – | – | – | – | Tumor growth inhibition rate (%) [7]: 75.3%; Tumor weight inhibition rate (%) [7]: 69.3%; IC50 [1, 14]: < 0.5 µM; IC50 [2, 15]: < 0.5 µM; IC50 [3, 16]: < 0.5 µM; IC50 [4, 17]: < 0.5 µM; IC50 [5, 18]: < 0.5 µM; IC50 [6, 19]: 0.5 to 1 µM |
| CN(C)CCN1C(=O)c2cccc3cc(N)cc(c23)C1=O [Amonafide] | 5 to 10 µM | 11 to 20 µM | 5 to 10 µM | 11 to 20 µM | 11 to 20 µM | 1 to 5 µM | – |
| O=NN(CCCl)C(=O)N1CCN(CCN2C(=O)c3cccc4cc([N+](=O)[O-])cc(c34)C2=O)CC1 [Compound I-08] | – | – | – | – | – | – | Tumor growth inhibition rate (%) [7]: 43.5%; Tumor weight inhibition rate (%) [7]: 31.2%; IC50 [1, 14]: 1 to 5 µM; IC50 [2, 15]: 1 to 5 µM; IC50 [3, 16]: 0.5 to 1 µM; IC50 [4, 17]: 0.5 to 1 µM; IC50 [5, 18]: 1 to 5 µM; IC50 [6, 19]: 0.5 to 1 µM |
| CN(C)C(=O)N(C)CCCNCN1C(=O)c2cccc3cccc(c23)C1=O [Compound I-07] | 1 to 5 µM | 1 to 5 µM | 1 to 5 µM | 5 to 10 µM | 5 to 10 µM | 5 to 10 µM | – |
| CC(C)(C)OC(=O)NCCCNCCCN1C(=O)c2cccc3cc([N+](=O)[O-])cc(c23)C1=O [Cob281] | 5 to 10 µM | 11 to 20 µM | 11 to 20 µM | 5 to 10 µM | 5 to 10 µM | 5 to 10 µM | – |
| CCN(CCNC(=O)N(C)CC)CCN1C(=O)c2cccc3cc([N+](=O)[O-])cc(c23)C1=O [Compound I-04] | 1 to 5 µM | 1 to 5 µM | 5 to 10 µM | 1 to 5 µM | 1 to 5 µM | 1 to 5 µM | – |
| O=NN(CCCl)C(=O)NCCCCN1C(=O)c2cccc3cccc(c23)C1=O [Compound 1d] | – | – | – | – | – | – | IC50 ([1]; Homo sapiens, HL-60, 96 h): 21 to 50 µM; IC50 ([2]; Homo sapiens, NCI-H460, 96 h): 51 to 100 µM; IC50 ([3]; Homo sapiens, COLO 205, 96 h): 21 to 50 µM; IC50 ([4]; Homo sapiens, U-937, 96 h): 11 to 20 µM; IC50 ([5]; Homo sapiens, HT-29, 96 h): 21 to 50 µM; IC50 ([6]; Homo sapiens, A549, 96 h): 21 to 50 µM |
| O=NN(CCCl)C(=O)NCCN1C(=O)c2cccc3cc([N+](=O)[O-])cc(c23)C1=O [Compound 1] | – | – | – | – | – | – | IC50 ([1]; Homo sapiens, HL-60, 96 h): 11 to 20 µM; IC50 ([2]; Homo sapiens, NCI-H460, 96 h): 11 to 20 µM; IC50 ([3]; Homo sapiens, COLO 205, 96 h): 21 to 50 µM; IC50 ([4]; Homo sapiens, U-937, 96 h): 21 to 50 µM; IC50 ([5]; Homo sapiens, HT-29, 96 h): 21 to 50 µM; IC50 ([6]; Homo sapiens, A549, 96 h): 5 to 10 µM |
